From ChEMBL document CHEMBL4196067, “Indole in the target-based design of anticancer agents: A versatile scaffold with diverse mechanisms” (Eur J Med Chem, 2018) come the findings set out here.

The subject of assay [1] is CCRF-HSB-2. As to the kind of experiment: Antiproliferative activity against human HSB2 cells by alamar blue assay. In kind it is functional. For orientation: Resazurin is reduced to fluorescent resorufin, in cell work by metabolically active cells.
The subject of assay [2] is MOLT-4. As to the kind of experiment: Antiproliferative activity against human MOLT4 cells by alamar blue assay. Format: functional.
In assay [3] the test system is HuT78. The assay is described as follows: Antiproliferative activity against human HUT78 cells by alamar blue assay. In kind it is functional.
Assay [4] has as its system Jurkat. As to the kind of experiment: Antiproliferative activity against human Jurkat cells by alamar blue assay. Format: functional.
For assay [5], the target named is T1, Sigma intracellular receptor 2 (Rattus norvegicus, UniProt Q5U3Y7).
T1 sequence (Q5U3Y7 whole entry): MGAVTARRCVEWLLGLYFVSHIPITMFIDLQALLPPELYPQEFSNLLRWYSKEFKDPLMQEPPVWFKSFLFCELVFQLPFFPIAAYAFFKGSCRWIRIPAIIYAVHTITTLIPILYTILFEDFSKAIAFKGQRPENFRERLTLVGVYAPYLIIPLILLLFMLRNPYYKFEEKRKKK
As to the kind of experiment: Displacement of [3H]-di-o-tolylguanidine from sigma-2 receptor in rat liver membranes after 180 mins by scintillation counting method. Format: cell membranes, Membrane. A general note: Loss of bound radioactivity is the signal in a displacement assay; it reports binding, not function.

Assay [6] relates to P388. The assay is described as follows: Antiproliferative activity against mouse P388 cells. In kind it is functional, cell-based.
In assay [7] the target is Serine/threonine-protein kinase pim-1 (Homo sapiens, UniProt P11309). The assay is described as follows: Inhibition of PIM1 (unknown origin).
Serine/threonine-protein kinase pim-1, sequence (P11309 whole entry): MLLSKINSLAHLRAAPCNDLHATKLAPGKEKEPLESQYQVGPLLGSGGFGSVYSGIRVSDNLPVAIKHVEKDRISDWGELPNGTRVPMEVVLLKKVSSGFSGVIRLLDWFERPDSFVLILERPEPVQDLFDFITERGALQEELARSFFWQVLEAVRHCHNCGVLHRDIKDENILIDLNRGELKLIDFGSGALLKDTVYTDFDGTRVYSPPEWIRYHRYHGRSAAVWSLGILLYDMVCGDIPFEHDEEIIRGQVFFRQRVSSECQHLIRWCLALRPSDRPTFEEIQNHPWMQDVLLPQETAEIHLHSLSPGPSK
Assay [8] deals with HepG2. As to the kind of experiment: Antiproliferative activity against human HepG2 cells. In kind it is functional, cell-based.
Assay [9] relates to MCF7. As to the kind of experiment: Antiproliferative activity against human MCF7 cells. Format: functional, cell-based.
Assay [10] has as its system HCT-116. As to the kind of experiment: Antiproliferative activity against human HCT116 cells. In kind it is functional, cell-based.
The target in assay [11] is Histone deacetylase 1 (Homo sapiens, UniProt Q13547). The assay is described as follows: Inhibition of HDAC1 (unknown origin).
Histone deacetylase 1, sequence (Q13547 whole entry): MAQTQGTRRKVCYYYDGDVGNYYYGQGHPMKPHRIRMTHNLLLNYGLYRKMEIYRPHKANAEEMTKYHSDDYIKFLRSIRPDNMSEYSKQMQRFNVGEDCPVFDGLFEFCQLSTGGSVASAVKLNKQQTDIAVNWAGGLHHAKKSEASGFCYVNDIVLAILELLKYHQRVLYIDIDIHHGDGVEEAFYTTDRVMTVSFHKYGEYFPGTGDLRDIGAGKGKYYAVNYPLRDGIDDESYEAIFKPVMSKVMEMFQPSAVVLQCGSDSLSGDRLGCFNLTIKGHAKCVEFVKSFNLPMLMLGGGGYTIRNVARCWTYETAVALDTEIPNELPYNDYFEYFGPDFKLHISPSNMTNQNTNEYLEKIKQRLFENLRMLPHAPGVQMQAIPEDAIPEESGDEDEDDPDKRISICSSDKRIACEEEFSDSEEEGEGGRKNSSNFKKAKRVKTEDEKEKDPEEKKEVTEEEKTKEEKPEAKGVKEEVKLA
In assay [12] the test system is K562. The assay is described as follows: Antiproliferative activity against human K562 cells. In kind it is functional, cell-based.
For assay [13], the system named is LoVo. The assay is described as follows: Antiproliferative activity against human LoVo cells. In kind it is functional, cell-based.
The target of assay [14] is Sigma non-opioid intracellular receptor 1 (Cavia porcellus, UniProt Q60492). As to the kind of experiment: Displacement of [3H]-(+)-pentazocine from sigma-1 receptor in guinea pig brain membranes after 180 mins by scintillation counting method. In kind it is cell membranes, Membrane.
Sigma non-opioid intracellular receptor 1, sequence (Q60492 whole entry): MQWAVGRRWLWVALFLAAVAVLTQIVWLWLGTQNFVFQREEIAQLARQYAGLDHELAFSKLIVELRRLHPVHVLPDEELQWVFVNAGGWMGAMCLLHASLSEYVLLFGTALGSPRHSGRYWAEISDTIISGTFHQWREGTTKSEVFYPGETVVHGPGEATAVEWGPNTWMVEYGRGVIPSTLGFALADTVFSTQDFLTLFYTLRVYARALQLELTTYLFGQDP
The test system of assay [15] is MCF7. As to the kind of experiment: Antiproliferative activity against human MCF7 cells after 72 hrs by SRB assay. Format: functional, cell-based. The conditions noted are these: MCF7, 72 h. A general note: In SRB staining, fixed cells bind dye roughly in proportion to their protein.
Assay [16] relates to HT-1080. The assay is described as follows: Antiproliferative activity against human HT1080 cells. Format: functional, cell-based.
Assay [17] has as its system MDA-MB-435. The assay is described as follows: Antiproliferative activity against human MDA435 cells. In kind it is functional, cell-based.

For orientation: GI50 means the concentration that inhibits growth by half. A low value points to more potent growth inhibition. As a reminder, the Ki is a dissociation constant, usually derived from enzyme kinetics or from competition with a known ligand. Read a high Ki as a looser hold on the target. As a reminder, the IC50 is the midpoint of a concentration-inhibition curve.

Values after ≈ are worked out from the molar mass of the structure shown.

In the case of `COc1ccc(Cn2ccc3ccc(C(=O)NO)cc32)cc1`, the 50% growth inhibitory concentration (GI50) in assay [1], in [2], in assay [3] and in [4] was 2400 to 4000 nM in each case.
In turn, `Fc1ccccc1N1CCN(CCCn2ccc3ccccc32)CC1` gave an inhibition constant Ki in assay [5] of 9.9 nM.
Compound `N[C@@H]1CSCON2CCc3c([nH]c4cc(Br)ccc34)[C@H]12` yielded an IC50 in [6] of 0.01 µg/mL (≈ 0.0282 µM).
On to `CCN(CC)CCCOc1cc(-c2ccc3[nH]cc(-c4ccnc(N)n4)c3c2)nc(N)n1`, for which, in assay [7], the concentration for half-maximal inhibition (IC50) came out at 67 nM.
Take `COc1ccc2[nH]cc(Cn3cc(COc4ccc(/C=C/C(=O)NO)cc4OC)nn3)c2c1`: the half-inhibitory concentration (IC50) in [8] was 3570 to 6210 nM; in assay [9], 3570 to 6210 nM; in [10] it was 3570 to 6210 nM; in [11], 78 nM; in assay [12], 3570 to 6210 nM; in assay [13] it was 3570 to 6210 nM.
For the compound `CN(C)CCCOc1cc(-c2ccc3[nH]cc(-c4ccnc(N)n4)c3c2)nc(N)n1`, half-maximal inhibition in assay [7] (IC50) was put at 58 nM.
Take `Cc1cn(CN2CCN(CCc3ccccc3)CC2)c2ccccc12`: the affinity in [5] corresponds to a Ki of 55.8 nM.
As for `Clc1ccc(CN2CCN(Cc3c[nH]c4ccccc34)CC2)cc1Cl`, the Ki in [5] and in assay [14] was at most 130 nM in each case. Moreover, the half-maximal inhibitory concentration (IC50) in [15] is 2920 nM.
`O=C(CCCCCCNC(=O)c1cc2ccccc2[nH]1)NO`: the figures for the IC50 in [16] and in [17] were 140 nM and 150 nM, respectively.
